Data taken from patent US7674789B2, “Compounds” (Glaxo Group Limited, priority 2005, dated 2010).

Test system: influx of neutrophils to the lung in LPS-challenged rats
Test: Rat LPS neutrophilia model
Format: in vivo
Conditions: intratracheal compound 15 min-24 hours before LPS aerosol (100 ug/ml, 15 min), lavage 4 hours later, in at least one of the range of conditions tested
Experimental: Rat LPS Neutrophilia Model
The effect of compounds on the influx of neutrophils to the lung in LPS-challenged rats is evaluated as follows. The test compound is suspended in one of the following solutions: 0.5% tween 80/PBS, 0.5% tween 80/saline, 10% EtOH/saline (with pH adjusted to 2.0, or 8.0 with HCl, or unadjusted), Saline @ pH 2.0, 6.5 or 8.0, 0.5% Tragacanth, 1% DMSO/20% Encapsin/Saline, or acidified 5% Tragacanth. The suspension process may be aided by the use of a glass homogenizer. For intratracheal administration, the animals are anesthetized with inhaled isoflurane and placed in a supine position, the trachea is intubated with a steel gavage needle (1.5 inch, 22 gauge, small ball) or a Penn-Century Microsprayer Aerosolizer (model IA-1B) and 200 ul of dosing solution is delivered. The animals are visually monitored during the recovery process, which typically occurs within two minutes.
Rats treated with compound or vehicle (15 min-24 hours pretreatment) are exposed to an LPS aerosol (100 ug/ml) for 15 min. Four hours later the rats are euthanized with pentobarbital (100 mg/kg, i.p.) and the airways are lavaged with 5 washes of 5 ml of phosphate buffered saline. The harvested cells are stained (Diffquick) and counted to determine total and differential cell data. In a typical study, macrophages represent 40-70% of the total cells, and polymorphonuclear cells 30-60% of the total cells. Inhibition of neutrophil levels relative to no compound controls is calculated based on the differential counts.
The assay has varying conditions, such as concentration, pretreat time, form of the compound (crystalline, amorphous, salts, micronised), and a wet or dry application of the compound. The data is obtained as % inhibition using a particular concentration and pretreat time.

Structure (SMILES)	inhibition of neutrophilia (neutrophil influx to the lung)
CNC(=O)c1ccc(C)c(-c2nc(N3CCC(N4CCCC4)CC3)nc3c2CNC(=O)N3c2c(F)cccc2F)c1 [Example 175, 3-{8-(2,6-difluorophenyl)-7-oxo-2-[4-(1-pyrrolidinyl)-1-piperidinyl]-5,6,7,8-tetrahydropyrimido[4,5-d]pyrimidin-4-yl}-N,4-dimethylbenzamide]	inactive
Cc1ccc(C(=O)NC(C)C)cc1-c1nc(N2CCC(N3CCC(C)CC3)CC2)nc2c1CNC(=O)N2c1c(F)cccc1F [Example 70, 3-[8-(2,6-difluorophenyl)-2-(4-methyl-1,4′-bipiperidin-1′-yl)-7-oxo-5,6,7,8-tetrahydropyrimido[4,5-d]pyrimidin-4-yl]-4-methyl-N-(1-methylethyl)benzamide]	statistically significant inhibition of neutrophilia
Cc1ccc(C(=O)Nc2ccc(C)c(-c3nc(OC(C)C)nc4c3CNC(=O)N4c3c(F)cccc3F)c2)cc1F [Example 26, N-(3-{8-(2,6-difluorophenyl)-2-[(1-methylethyl)oxy]-7-oxo-5,6,7,8-tetrahydropyrimido[4,5-d]pyrimidin-4-yl}-4-methylphenyl)-3-fluoro-4-methylbenzamide]	inactive
Cc1ccc(C(=O)NC(C)C)cc1-c1nc(NC2CCN(Cc3ccccc3)CC2)nc2c1CNC(=O)N2c1c(F)cccc1F [Example 200, 3-(8-(2,6-difluorophenyl)-7-oxo-2-{[1-(phenylmethyl)-4-piperidinyl]amino}-5,6,7,8-tetrahydropyrimido[4,5-d]pyrimidin-4-yl)-4-methyl-N-(1-methylethyl)benzamide]	statistically significant inhibition of neutrophilia
Cc1ccc(C(=O)Nc2ccc(F)cc2)cc1-c1nc(N2CCC(N3CCCC3)CC2)nc2c1CNC(=O)N2c1c(F)cccc1F [86(c), 3-{8-(2,6-difluorophenyl)-7-oxo-2-[4-(1-pyrrolidinyl)-1-piperidinyl]-5,6,7,8-tetrahydropyrimido[4,5-d]pyrimidin-4-yl}-N-(4-fluorophenyl)-4-methylbenzamide]	statistically nonsignificant inhibition of neutrophilia
COc1ccc(NC(=O)c2ccc(C)c(-c3nc(NCCN(C)C)nc4c3CNC(=O)N4c3c(F)cccc3F)c2)cn1 [Example 140, 3-(8-(2,6-difluorophenyl)-2-{[2-(dimethylamino)ethyl]amino}-7-oxo-5,6,7,8-tetrahydropyrimido[4,5-d]pyrimidin-4-yl)-4-methyl-N-[6-(methyloxy)-3-pyridinyl]benzamide]	statistically significant inhibition of neutrophilia
CNC(=O)c1ccc(C)c(-c2nc(N(C)CCCN(C)C)nc3c2CNC(=O)N3c2c(F)cccc2F)c1 [Example 174, 3-{8-(2,6-difluorophenyl)-2-[[3-(dimethylamino)propyl](methyl)amino]-7-oxo-5,6,7,8-tetrahydropyrimido[4,5-d]pyrimidin-4-yl}-N,4-dimethylbenzamide]	inactive
CSc1ccc(NC(=O)c2ccc(C)c(-c3nc(NCCN(C)C)nc4c3CNC(=O)N4c3c(F)cccc3F)c2)cc1 [Example 127, 3-(8-(2,6-difluorophenyl)-2-{[2-(dimethylamino)ethyl]amino}-7-oxo-5,6,7,8-tetrahydropyrimido[4,5-d]pyrimidin-4-yl)-4-methyl-N-[4-(methylthio)phenyl]benzamide]	statistically significant inhibition of neutrophilia
CNC(=O)c1ccc(C)c(-c2nc(N3CCC(N4CCCCC4)CC3)nc3c2CNC(=O)N3c2c(F)cccc2F)c1 [Example 176, 3-[2-(1,4′-bipiperidin-1′-yl)-8-(2,6-difluorophenyl)-7-oxo-5,6,7,8-tetrahydropyrimido[4,5-d]pyrimidin-4-yl]-N,4-dimethylbenzamide]	statistically nonsignificant inhibition of neutrophilia
Cc1ccc(C(=O)NC(C)C)cc1-c1nc(NCCN(C)C)nc2c1CNC(=O)N2c1c(F)cccc1F [Example 37, 3-(8-(2,6-difluorophenyl)-2-{[2-(dimethylamino)ethyl]amino}-7-oxo-5,6,7,8-tetrahydropyrimido[4,5-d]pyrimidin-4-yl)-4-methyl-N-(1-methylethyl)benzamide]	statistically nonsignificant inhibition of neutrophilia
Cc1ccc(C(=O)Nc2ccc(C)c(-c3nc(N4CCC(N)CC4)nc4c3CNC(=O)N4c3c(F)cccc3F)c2)cc1F [Example 24, N-{3-[2-(4-amino-1-piperidinyl)-8-(2,6-difluorophenyl)-7-oxo-5,6,7,8-tetrahydropyrimido[4,5-d]pyrimidin-4-yl]-4-methylphenyl}-3-fluoro-4-methylbenzamide]	statistically nonsignificant inhibition of neutrophilia
Cc1ccc(C(=O)Nc2ccccc2)cc1-c1nc(NCCN(C)C)nc2c1CNC(=O)N2c1c(F)cccc1F [Example 137, 3-(8-(2,6-difluorophenyl)-2-{[2-(dimethylamino)ethyl]amino}-7-oxo-5,6,7,8-tetrahydropyrimido[4,5-d]pyrimidin-4-yl)-4-methyl-N-phenylbenzamide]	statistically significant inhibition of neutrophilia
CN(C)CCNc1nc(-c2cccc(C(=O)Nc3ccc(F)cc3)c2)c2c(n1)N(c1c(F)cccc1F)C(=O)NC2 [Example 93, 3-(8-(2,6-difluorophenyl)-2-{[2-(dimethylamino)ethyl]amino}-7-oxo-5,6,7,8-tetrahydropyrimido[4,5-d]pyrimidin-4-yl)-N-(4-fluorophenyl)benzamide]	statistically nonsignificant inhibition of neutrophilia
Cc1ccc(C(=O)NCc2ccccc2)cc1-c1nc(N(C)CCCN(C)C)nc2c1CNC(=O)N2c1c(F)cccc1F [Example 17, 3-{8-(2,6-Difluorophenyl)-2-[[3-(dimethylamino)propyl](methyl)amino]-7-oxo-5,6,7,8-tetrahydropyrimido[4,5-d]pyrimidin-4-yl}-4-methyl-N-(phenylmethyl)benzamide]	statistically nonsignificant inhibition of neutrophilia
Cc1ccc(C(=O)NCc2ccccc2)cc1-c1nc(NCCCN(C)C)nc2c1CNC(=O)N2c1c(F)cccc1F [Example 151, 3-(8-(2,6-difluorophenyl)-2-{[3-(dimethylamino)propyl]amino}-7-oxo-5,6,7,8-tetrahydropyrimido[4,5-d]pyrimidin-4-yl)-4-methyl-N-(phenylmethyl)benzamide]	statistically nonsignificant inhibition of neutrophilia
Cc1ccc(C(=O)Nc2ccc(C)c(-c3nc(NC4CC(C)(C)NC(C)(C)C4)nc4c3CNC(=O)N4c3c(F)cccc3F)c2)cc1F [23(e), N-(3-{8-(2,6-difluorophenyl)-7-oxo-2-[(2,2,6,6-tetramethyl-4-piperidinyl)amino]-5,6,7,8-tetrahydropyrimido[4,5-d]pyrimidin-4-yl}-4-methylphenyl)-3-fluoro-4-methylbenzamide]	statistically nonsignificant inhibition of neutrophilia
Cc1ccc(C(=O)NCc2ccccc2)cc1-c1nc(N2CCN(C)CC2)nc2c1CNC(=O)N2c1c(F)cccc1F [Example 148, 3-[8-(2,6-difluorophenyl)-2-(4-methyl-1-piperazinyl)-7-oxo-5,6,7,8-tetrahydropyrimido[4,5-d]pyrimidin-4-yl]-4-methyl-N-(phenylmethyl)benzamide]	statistically nonsignificant inhibition of neutrophilia
CN(C)CCNc1nc(-c2cccc(C(=O)Nc3ccccc3)c2)c2c(n1)N(c1c(F)cccc1F)C(=O)NC2 [Example 91, 3-(8-(2,6-difluorophenyl)-2-{[2-(dimethylamino)ethyl]amino}-7-oxo-5,6,7,8-tetrahydropyrimido[4,5-d]pyrimidin-4-yl)-N-phenylbenzamide]	statistically significant inhibition of neutrophilia
Cc1ccc(C(=O)Nc2nccs2)cc1-c1nc(N(C)CCCN(C)C)nc2c1CNC(=O)N2c1c(F)cccc1F [Example 124, 3-{8-(2,6-difluorophenyl)-2-[[3-(dimethylamino)propyl](methyl)amino]-7-oxo-5,6,7,8-tetrahydropyrimido[4,5-d]pyrimidin-4-yl}-4-methyl-N-1,3-thiazol-2-ylbenzamide]	statistically nonsignificant inhibition of neutrophilia
Cc1ccc(C(=O)NC(C)C)cc1-c1nc(N2CCC(N3CCCCC3)CC2)nc2c1CNC(=O)N2c1c(F)cccc1F [Example 57, 3-[2-(1,4′-bipiperidin-1′-yl)-8-(2,6-difluorophenyl)-7-oxo-5,6,7,8-tetrahydropyrimido[4,5-d]pyrimidin-4-yl]-4-methyl-N-(1-methylethyl)benzamide]	statistically nonsignificant inhibition of neutrophilia
